Measured values as given in ChEMBL document CHEMBL1201862, “PubChem BioAssay data set” (2004).
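The compound was tested at five concentrations on cells cultured in 96-well plates, with a 48-hour exposure period. GI50 marks 50% less growth.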 Active and inactive are the calls of the source. No stated cut-off is given here; in the data, active = GI50 up to about 1.1 µM and inactive = higher.

What was measured:
Assay in all cases: NCI-60 cell line screen, 48 h
[1] = test system: UACC-62
[2] = test system: NCI-H226
[3] = test system: OVCAR-4
[4] = test system: HL-60
[5] = test system: DU-145
[6] = test system: HCT-116
[7] = test system: KM12
[8] = test system: A549
[9] = test system: 786-0
[10] = test system: LOX IMVI
[11] = test system: A498
[12] = test system: SF-295
[13] = test system: SK-MEL-2
[14] = test system: MOLT-4
[15] = test system: HT-29
[16] = test system: NCI-H460
[17] = test system: ACHN
[18] = test system: PC-3
[19] = test system: Malme-3M
[20] = test system: CCRF-CEM

For `OC1(c2ccccc2)c2ccccc2N=C2NCCN21` (stereo not drawn), the GI50 [1] was 51.4 µM (inactive), the GI50 [2] was > 100 µM (inactive) and the GI50 [3] was > 100 µM (inactive). The GI50 [4] was 44.1 µM (inactive), the GI50 [5] was > 100 µM (inactive) and the GI50 [6] was 83.9 µM (inactive). For the same compound, the GI50 [7] was > 100 µM (inactive), the GI50 [8] was > 100 µM (inactive) and the GI50 [9] was 72.9 µM (inactive). For the same compound, the GI50 [10] was 23.4 µM (inactive), the GI50 [11] was 86.5 µM (inactive) and the GI50 [12] was 57.5 µM (inactive). For the same compound, the GI50 [13] was > 100 µM (inactive), the GI50 [14] was 0.424 µM (active) and the GI50 [15] was 74.6 µM (inactive). For the same compound, the GI50 [16] was 56.4 µM (inactive), the GI50 [17] was > 100 µM (inactive) and the GI50 [18] was 52.2 µM (inactive).
For `CC(=O)OC1CN2CCC1CC2` (stereo not drawn) [ACECLIDINE], the GI50 [1] was > 100 µM (inactive), the GI50 [19] was > 100 µM (inactive) and the GI50 [2] was > 100 µM (inactive). The GI50 [3] was > 100 µM (inactive), the GI50 [4] was > 100 µM (inactive) and the GI50 [5] was > 100 µM (inactive). The GI50 [6] was > 100 µM (inactive), the GI50 [7] was > 100 µM (inactive) and the GI50 [8] was > 100 µM (inactive). For the same compound, the GI50 [9] was > 100 µM (inactive), the GI50 [10] was > 100 µM (inactive) and the GI50 [11] was 3.45 µM (inactive). The GI50 [12] was > 100 µM (inactive), the GI50 [20] was > 100 µM (inactive) and the GI50 [14] was > 100 µM (inactive). The GI50 [15] was > 100 µM (inactive), the GI50 [16] was > 100 µM (inactive) and the GI50 [17] was > 100 µM (inactive). The GI50 [18] was > 100 µM (inactive).
`COc1cccc(/N=N/N2CCCC2)c1` was tested, and the GI50 [1] was 39.5 µM (inactive), the GI50 [2] was > 100 µM (inactive) and the GI50 [3] was > 100 µM (inactive). The GI50 [4] was 34.6 µM (inactive), the GI50 [5] was > 100 µM (inactive) and the GI50 [6] was > 100 µM (inactive). For the same compound, the GI50 [7] was 9.46 µM (inactive), the GI50 [9] was > 100 µM (inactive) and the GI50 [10] was 40.2 µM (inactive). For the same compound, the GI50 [11] was > 100 µM (inactive), the GI50 [12] was 26.5 µM (inactive) and the GI50 [13] was > 100 µM (inactive). For the same compound, the GI50 [20] was > 100 µM (inactive), the GI50 [14] was > 100 µM (inactive) and the GI50 [16] was > 100 µM (inactive). For the same compound, the GI50 [17] was > 100 µM (inactive) and the GI50 [18] was 27.2 µM (inactive).
For `CCCNC(=O)CCC(C)[C@H]1CCC2C3C(C[C@H](OC(C)=O)[C@@]21C)[C@@]1(C)CCC2(C[C@H]1C[C@H]3OC(C)=O)OOC1(CCC(C)CC1)OO2` (stereo partly drawn), the GI50 [1] was 43.5 µM (inactive), the GI50 [19] was 18.6 µM (inactive) and the GI50 [2] was 55.3 µM (inactive). The GI50 [3] was 15.8 µM (inactive), the GI50 [4] was 13.1 µM (inactive) and the GI50 [5] was 9.31 µM (inactive). The GI50 [6] was 32.1 µM (inactive), the GI50 [7] was 5.52 µM (inactive) and the GI50 [8] was 2.17 µM (inactive). The GI50 [9] was 16.2 µM (inactive), the GI50 [11] was 22.2 µM (inactive) and the GI50 [12] was 26.7 µM (inactive). For the same compound, the GI50 [13] was 19.5 µM (inactive), the GI50 [20] was 0.0376 µM (active) and the GI50 [14] was 37.7 µM (inactive). The GI50 [15] was 36.9 µM (inactive), the GI50 [16] was 23.5 µM (inactive) and the GI50 [17] was 2.14 µM (inactive). The GI50 [18] was 19.8 µM (inactive).
For `OC(c1cccnc1)C(F)(F)c1nc2ccccc2o1` (stereo not drawn), the GI50 [1] was > 100 µM (inactive), the GI50 [2] was > 100 µM (inactive) and the GI50 [3] was > 100 µM (inactive). For the same compound, the GI50 [4] was > 100 µM (inactive), the GI50 [5] was 50.8 µM (inactive) and the GI50 [6] was > 100 µM (inactive). For the same compound, the GI50 [7] was > 100 µM (inactive), the GI50 [9] was > 100 µM (inactive) and the GI50 [10] was > 100 µM (inactive). For the same compound, the GI50 [11] was 49.9 µM (inactive), the GI50 [13] was > 100 µM (inactive) and the GI50 [20] was > 100 µM (inactive). The GI50 [14] was > 100 µM (inactive), the GI50 [15] was > 100 µM (inactive) and the GI50 [16] was > 100 µM (inactive). The GI50 [17] was > 100 µM (inactive) and the GI50 [18] was > 100 µM (inactive).
`CN(C)Cc1cc(C=O)cc(CN(C)C)c1O` was tested, and the GI50 [19] was > 100 µM (inactive), the GI50 [2] was > 100 µM (inactive) and the GI50 [3] was > 100 µM (inactive). The GI50 [4] was > 100 µM (inactive), the GI50 [5] was > 100 µM (inactive) and the GI50 [6] was > 100 µM (inactive). The GI50 [7] was > 100 µM (inactive), the GI50 [8] was > 100 µM (inactive) and the GI50 [9] was > 100 µM (inactive). For the same compound, the GI50 [10] was > 100 µM (inactive), the GI50 [11] was > 100 µM (inactive) and the GI50 [12] was > 100 µM (inactive). For the same compound, the GI50 [20] was > 100 µM (inactive), the GI50 [14] was > 100 µM (inactive) and the GI50 [15] was > 100 µM (inactive). The GI50 [16] was > 100 µM (inactive), the GI50 [17] was > 100 µM (inactive) and the GI50 [18] was > 100 µM (inactive).
